Experiments:
[1] = system: Mouse lymphoma L5178y-R cells; test: Clonogenic cell survival of PDT-treated LY-R cells; format: cell-based; conditions: 0.5 μM; for activity relative to PcXII: from LD50/LD90 fluences
Procedure: Mouse lymphoma L5178y-R (hereinafter also referred to as “LY-R”) cells were grown in suspension culture as described in Ramakrishnan N., Oleinick, N. L. Clay, M. E., Homg, M. F., Antunez, A. R., and Evans H. H., Photochem. Photobiol. 50, 373-378, 1989 and Agarwal, M. L., Clay, M. E., Harvey, E. J., Evans, H. H., Antunez, A. R., and Oleinick, N. L., Cancer Res., 51, 5993-5996, 1991.
The cells were used while in exponential growth. Stock solutions of either 0.5 or 1 mM of PcIV, PcXII, PcX, PcXVIII were prepared in dimethylformamide unless otherwise indicated and added to the 10 mL medium at a rate of 1 μL per mL. After allowing 18 hours for uptake of the phthalocyanine into the cells, the flasks containing the cultures were placed on a glass exposure tray above a 500-W tungsten-halogen lamp. The exposure tray was fitted with a 600-nm high-pass filter. Flasks were exposed to various fluences of red light (up to 30 kJ/m^2) at a fluence rate of approximately 74 W/m^2). After irradiation, the cells were collected by centrifugation.
For measurement of clonogenic cell survival, aliquots were plated in medium containing soft agar as described in Ramakrishnan N., Oleinick, N. L. Clay, M. E., Homg, M. F., Antunez, A. R., and Evans H. H., Photochem. Photobiol. 50, 373-378, 1989. The aliquots were plated in sufficient numbers to produce 50-200 colonies. The dishes were kept in an incubator at 37° C. in an atmosphere of 5% CO2 and 95% air for 10-14 days to allow viable cells to form colonies. Colonies were counted by eye. Controls treated with the phthalocyanine alone had plating efficiencies of about […]. The plating efficiencies of the treated cells are normalized to the plating efficiencies of control cells in each experiment. For measurement of the induction of apoptosis, DNA was isolated from the treated and control cells 2 hours after photodynamic therapy, subjected to electrophoresis on 1.5% agarose, stained with ethidium bromide, and visualized by UV transillumination, as described in Agarwal et al. The results are shown in Tables 4, 5 and 6 and in FIG. 3.

[2] = system: RIF-1 (radiation-induced fibrosarcoma) tumors; test: PDT of RIF-1 implanted tumors; format: in vivo, C3H/HeN mice; parameters: key to Tumor Responses at 24 hours: complete: no evidence of any tumor mass in any animal; only the scar from the photodynamic therapy was evident.; near complete: evidence of any tumor mass in four or five animals; only some tumor mass in one or two animals.; substantial: a significant tumor shrinkage occurred in all animals. In some animals the tumor response was complete, yet in others the response was not complete.; moderate: some tumor shrinkage was evident in some animals. In animals with some tumor shrinkage, scar formation was evident.; slight: some tumor decrease occurred in one or two mice; conditions: for Tumor Responses at 24 hours / Doubling Time of Initial Tumor Volume after PDT: 1 mg/kg in corn oil, 675 nm; for Tumor Responses at 24 hours: 135 J/cm^2, light 24 h after dosing; for Doubling Time of Initial Tumor Volume after PDT: 135 J/cm^2, controls 4 days
[3] = system: L5178Y cells; test: Induction of apoptosis (DNA ladder) in L5178Y cells after PDT; format: cell-based, Mouse; conditions: for C × F Ld90, Minimum Demonstrated Condition to Induce Apoptosis: product of concentration and fluence
Procedure: The aliquots were plated in sufficient numbers to produce 50-200 colonies. The dishes were kept in an incubator at 37° C. in an atmosphere of 5% CO2 and 95% air for 10-14 days to allow viable cells to form colonies. Colonies were counted by eye. […] The plating efficiencies of the treated cells are normalized to the plating efficiencies of control cells in each experiment.
Cells were treated with various concentrations of the compounds listed in the table and various light fluences. DNA gels were prepared and examined for the characteristic “ladder” pattern of DNA fragments. For each Pc, the minimum total PDT dose tested (calculated as the product of the minimum phthalocyanine concentration and the minimum fluence) which produced visible DNA fragments is recorded. […] PcXVIII was also added at 0.5 and 1.0 μM.

Structure (SMILES)	Ld50 (fluence that reduces cell survival to 50%) [1]	Ld90 (fluence that reduces cell survival to 10%) [1]	activity relative to PcXII [1]	normalized plating efficiency, AVG. ([1]; light dose 0 kJ/m^2)	normalized plating efficiency, AVG. ([1]; light dose 2 kJ/m^2)	normalized plating efficiency, AVG. ([1]; light dose 3 kJ/m^2)	normalized plating efficiency, AVG. ([1]; light dose 4 kJ/m^2)	normalized plating efficiency, AVG. ([1]; light dose 5 kJ/m^2)	Tumor Responses at 24 hours [2]	Doubling Time of Initial Tumor Volume after PDT [2]	normalized plating efficiency, AVG. ([1]; light dose 1 kJ/m^2)	normalized plating efficiency, AVG. ([1]; light dose 2.5 kJ/m^2)	Fluence, Minimum Demonstrated Condition to Induce Apoptosis ([3]; 0.4 μM)	C × F Ld90, Minimum Demonstrated Condition to Induce Apoptosis ([3]; 0.4 μM)	also measured
CCN(CCC[Si](C)(C)O[Si]1(O[Si](C)(C)CCCN(CC)CCN(C)C)n2c3c4ccccc4c2N=C2N=C(N=c4c5ccccc5c(n41)=NC1=NC(=N3)c3ccccc31)c1ccccc12)CCN(C)C [Compound XVIII, SiPc[OSi(CH3)2(CH2)3N(CH2CH3)(CH2)2N(CH3)2]2]	5.00 kJ/m^2	7.81 kJ/m^2	22%	100	81.8	73.6	64.0	52.1	near complete	12 days	–	–	–	–	normalized plating efficiency, AVG. ([1]; light dose 6 kJ/m^2): 33.8; normalized plating efficiency, AVG. ([1]; light dose 8 kJ/m^2): 9.13; normalized plating efficiency, AVG. ([1]; light dose 10 kJ/m^2): 3.0; Fluence, Minimum Demonstrated Condition to Induce Apoptosis ([3]; 0.5 μM): 10.0 kJ/m^2; C × F Ld90, Minimum Demonstrated Condition to Induce Apoptosis ([3]; 0.5 μM): 5.0 kJ/m^2; Fluence, Minimum Demonstrated Condition to Induce Apoptosis ([3]; 1.0 μM): 3.0 kJ/m^2; C × F Ld90, Minimum Demonstrated Condition to Induce Apoptosis ([3]; 1.0 μM): 3.0 kJ/m^2
CN(C)CCC[Si](C)(C)O[Si]1(O[Si](C)(C)CCCN(C)C)n2c3c4ccccc4c2N=C2N=C(N=c4c5ccccc5c(n41)=NC1=NC(=N3)c3ccccc31)c1ccccc12 [Compound XII, SiPc[OSi(CH3)2(CH2)3N(CH3)2]2]	1.11 kJ/m^2	1.70 kJ/m^2	–	100	5.23	0.15	0.014	0.0027	complete	20 days	82.2	0.90	3.0 kJ/m^2	1.2 kJ/m^2	–
CN(C)CCC[Si](C)(C)O[Si]1(O)n2c3c4ccccc4c2N=C2N=C(N=c4c5ccccc5c(n41)=NC1=NC(=N3)c3ccccc31)c1ccccc12 (centres unmarked) [Compound IV, HOSiPcOSi(CH3)2(CH2)3N(CH3)2]	1.38 kJ/m^2	2.15 kJ/m^2	about 80%	100	19.7	0.16	–	0.014	near complete	16 days	80.9	0.82	3.0 kJ/m^2	1.2 kJ/m^2	Histological examination of treated tumors ([2]; RIF-1 tumors after PDT): presence of apoptotic bodies in the tumor
